In patent US6737237B1, “Antimicrobial agents, diagnostic reagents, and vaccines based on unique Apicomplexan parasite components” (Apicomplexan Therapeutics, LLC, priority 1999, dated 2004):
Values after ≈ are worked out from the molar mass of the structure shown.

What was measured:
[1] = system: T. gondii tachyzoites (RH strain); assay: microbe, parasite or virus in culture; type: cell-based, Toxoplasma gondii
Description: The improvements are based on microscopic visual imspection of infected and inhibitor treated cultures, and on quantitation of nucleic acid synthesis of the parasite by measure intake of ^3H uracil onto the parasite's nucleic acid. Uracil is not utilized by mammalian cells. […] Only the RH strain tachyzoites, cultured for up to 72 hours, had been used in previously reported assays. The use of Me49, Ptg, and R5 mutant are unique aspects of the methods used in these assays in this invention.
(§1) In these assays toxicity of a candidate inhibitor was assessed by its ability to prevent growth of human foreskin fibroblasts (HFF) after 4 days and after 8 days as measured by tritiated thymidine uptake and microscopic evaluation. Confluent monolayers of HFF were infected with tachyzoites and bradyzoites. Inhibitor was added one hour later. Non-toxic doses were used in parasite growth inhibition assays. Parasite growth was measured by ability to incorporate tritiated uracil during the last 18 hours of culture.
(§2) First the toxicity of gabaculine was assessed by its ability to prevent growth of human foreskin fibroblasts (HFF) as measured by ^3H-thymidine uptake and microscopic evaluation. Non-toxic doses were used in parasite growth inhibition assays. in vitro parasite growth inhibition assays included confluent monolayers of HFF infected with tachyzoites (RH) or mutant Me49 (R5). Gabaculine was added 1 hour later. Parasite growth was measured by the ability to incorporate ^3H-uracil during the last 18 hours of culture. In addition, parasite growth was evaluated microscopically in Giemsa stained slides.
ii) in vitro Parasite Growth Inhibition Assays: Confluent monolayers of HFF cells, grown in 96-well plates are infected with T. gondii tachyzoites of the RH strain and serial dilutions of anti-microbial compound are applied 1 hour later. T. gondii growth is assessed in these cultures by their ability to incorporate tritiated uracil (2.5 μCi/well) added during the last 18 hours of culture. After harvesting cells with an automatic cell harvester, uracil incorporation is measured by liquid scintillation.

C. parvum = C. parvum infection of MDBKF5D2 cell monolayers, immunofluorescence assay at 48 hours; type: cell-based, Cryptosporidium parvum
Description: C. parvum oocysts at 50,000/well were incubated at 37° C. (8% CO2) on confluent MDBKF5D2 cell monolayers in 96 well microtiter plates with the following concentrations of each drug. […] The level of infection of each well was determined and analyzed by an immunofluorescence assay at 48 hours using an antibody to C. parvum sporozoites made in rabbits at a concentration of 0.1%. Fluorescein-conjugated goat anti-rabbit antibody was used at a concentration of 1%.
(8% carbon dioxide) on confluent MDBKF5D2 cell monolayers in 96 well microtiter plates. The level of infection of each well was determined and analyzed by an immunofluorescence assay at 48 hours using as an antibody C. parvum sporozoite rabbit anti-serum (0.1%), and using fluorescein-conjugated goat anti-rabbit antibody (1%). Data are expressed as mean parasite count/field when 16 fields counted at 10× magnification “s.d. of the mean” (FIG. 6).

[2] = system: D6 clone of Plasmodium falciparum; assay: P. falciparum in vitro assay (Milhous et al., 1985), D6 clone; type: cell-based; details: D6, 66 h
[3] = system: human foreskin fibroblasts (HFF); assay: Toxicity: growth of fibroblasts, tritiated thymidine uptake and microscopic evaluation; type: cell-based; details: herbicide experiments
Description: as §1, §2
d) Inhibitors: Inhibitor compounds are tested over a range of concentrations for toxicity against mammalian cells by assessing their ability to prevent cell growth as measured by tritiated thymidine uptake and inspection of the monolayer using microscopic evaluation. […]

Toxoplasma gondii ACC = assay: ACC activity in T. gondii tachyzoite protein extracts (carboxyl incorporation from bicarbonate); type: biochemical
From the text: In plants, genes encoding enzymes for fatty acid synthesis, including various subunits of ACC except one, are present in the nuclear genome and their protein products are imported and function in plastids. ACC, catalyzing the first committed step of de novo fatty acid biosynthesis, is a known selective target of aryloxyphenoxypropionate (“fops”) and cyclohexanedione (“dims”) herbicides in sensitive species. The molecular mechanism of inhibition/resistance of the enzyme is not know but there is a strong correlation between the enzyme structure and its origin. The high molecular weight multi-domain ACC that is localized in plastids of grasses is extremely sensitive to these herbicides. All of the multi-subunit chloroplast enzymes of dicot plants and bacteria as well as other multi-domain cytosolic ACCs, such as those from man, chicken, rat and yeast, are resistant. ACC activity is conveniently measured in vitro by the incorporation of the carboxyl group from bicarbonate into an acid-stable form using crude protein extracts after Sephadex G50 filtration. […] One band at 240 kDa corresponded to the expected size for a subunit of ACC, while another at 130 kDA corresponded to the size expected for pyruvate carboxylase (PC).
(§3) Structures of fops and dims were tested on the ACC-containing protein extracts of T. gondii described above. Three of the four fops were striking inhibitors of the activity, while none of the dims had any effect against the enzyme. […] Effects of the herbicides on uninfected fibroblasts and on T. gondii growth and replication were tested as previously described by Roberts et al., 1998 using incorporation of radiolabeled thymidine by growing fibroblasts to assess toxicity and incorporation of radiolabeled uracil to measure T. gondii growth and persistence. Anti-parasite activity and toxicity for four fops and one representative dim were determined. Pyrimethamine and sulfadiazine, antimicrobial agents which are known inhibitors of folate synthesis, were included as positive control. […] Consistent with the data for ACC activity in vitro, the inhibitory activity of the fops and the dim on T. gondii growth in fibroblasts was in the same concentration range. […] With regard to toxicity, fops are mildly toxic at the highest concentration, 400 μM. In separate experiments, the effect of Clodinafop on T. gondii was assessed by light microscopy. […] In this experiment, cultures were incubated for 2 more days without the inhibitor.

Toxoplasma tachyzoites = assay: Light microscopy of T. gondii infected fibroblasts treated with Clodinafop; type: cell-based, Toxoplasma gondii; details: for parasites in infected fibroblasts: 4-day treatment, one change of medium and inhibitor after 2 days, then 2 more days without inhibitor; for number of T. gondii cells in infected fibroblasts: two days
Description: as §3

T. gondii [4] = assay: Assay for synergy in vitro: inhibitors alone and together on replication of T. gondii (uracil CPM); type: cell-based, Toxoplasma gondii; details: for CPM for B: Drug B alone: Sulfadiazine (6.25 μg/ml), Pyrimethamine (0.025 μg/ml), SHAM (0.78 μg/ml)
From the text: The effect of enzymes in pathways “in parallel” are additive and in “series” are more than the additive effect of either inhibitor used alone (i.e., synergistic). […] The shikimate pathway produces 3,4-dihdroxybenzoate which is converted to ubiquinone, an essential component of the electron transport chain. Thus, NPMG, an inhibitor of EPSP-synthase, indirectly affects ubiquinone production and, thus, the electron transport chain. Similarly, heme is required for production of cytochromes in the electron transport chain. Thus, inhibition of heme production by gabaculine also indirectly affects the conventional electron transport chain. […] T. gondii growth is measured by their ability to incorporate tritiated uracil and is expressed as counts/minute (CPM).
g) Assays for Synergy in vitro: This is an assy in which ≦50% inhibitor concentrations of two antimicrobial agents are added alone and together to determine whether there is an additive, synergistic or inhibitory interaction. All other aspects of this assay are as described herein.

T. gondii [5] = assay: Effect of inhibitors on T. gondii infection in vivo (manifestations, parasitemia, brain cysts); design: species or system mice; details: mouse
Description: Cyst numbers present in a suspension of brain are enumerated, or cyst numbers in formalin fixed paraffin embedded sections are quantitated.
c) Persistance of Cysts: C3H/He mice are infected orally with 100 cysts of T. gondii (Me49 strain). Inhibitors are administered to groups of mice from day 30 post infection to day 50 post infection. Cyst burden, mortality and pathology are compared in treated and control mice on days 30 and 50 post infection and in mice that receive antibody to gamma interferon which leads to recrudescence of disease.
A method to measure the amount of parasitemia in mouse peripheral blood has been developed. Briefly, the target for PCR amplification is the 35 fold repetitive B1 gene of T. gondii and the amplification was performed using primers previously reported. […] Competitive PCR was performed by spiking individual reactions (containing equal amounts of genomic DNA) with a dilution of the internal standard. Since this internal control contains the same primer template sequences, it competes with the B1 gene of T. gondii for primer binding and amplification. The sensitivity of the PCR reaction in each sample can be monitored. Following competitive PCR, the PCR products are distinguished by size and the amount of products generated by the target and internal standard can be compared on a gel. […]

Oc1cccc2cccnc12 [8-OH-quinoline, 8-hydroxyquinoline]
activity against T. gondii (tachyzoites) [1]: effective | approximate 95% C1 count (mean parasite count per field) (C. parvum; 8-OH-quinoline 0.1 μg/ml, media alone ~1800): ~1300 | approximate 95% C1 count (mean parasite count per field) (C. parvum; 8-OH-quinoline 1 μg/ml, media alone ~1800): ~1100 | approximate 95% C1 count (mean parasite count per field) (C. parvum; 8-OH-quinoline 10 μg/ml, media alone ~1800): ~900 | approximate 95% C1 count (mean parasite count per field) (C. parvum; 8-OH-quinoline 100 μg/ml, media alone ~1800): ~300 | IC50 [2]: 1.2 µg/mL (≈ 8.29 µM) | IC90 [2]: 1.88 µg/mL (≈ 13 µM)

C[C@@H](Oc1ccc(Oc2ncc(Cl)cc2F)cc1)C(=O)O [Clodinafop]
inhibition of growth of T. gondii in human fibroblasts (uracil incorporation) ([1]; 10 μM): 70% | toxicity for fibroblasts (thymidine incorporation) [3]: not toxic | inhibition of ACC activity (Toxoplasma gondii ACC; 20 μM): 50% | inhibition of ACC activity (Toxoplasma gondii ACC; 100 μM): 90% | parasites in infected fibroblasts (Toxoplasma tachyzoites; 10 μM): No parasite cells were found | parasites in infected fibroblasts (Toxoplasma tachyzoites; 10 μM, listed as clodinafop): complete eradication | number of T. gondii cells in infected fibroblasts (Toxoplasma tachyzoites; 10 μM): substantial reduction | number of T. gondii cells in infected fibroblasts (Toxoplasma tachyzoites; 100 μM): almost complete removal

CC1(C)N=C(N)N=C(N)N1c1ccc(Cl)cc1 [Cycloguanil]
combined effect of two inhibitors in vitro (additive or synergistic) (T. gondii [4]; T. gondii in culture): synergistic with NPMG

CC(Oc1ccc(Oc2ccc(C(F)(F)F)cn2)cc1)C(=O)O (centres unmarked) [Fluazifop]
effect on T. gondii ACC activity in crude extracts (Toxoplasma gondii ACC): relatively low inhibitory activity

CC(Oc1ccc(Oc2ncc(C(F)(F)F)cc2Cl)cc1)C(=O)O (centres unmarked) [Haloxyfop]
inhibition of ACC activity (Toxoplasma gondii ACC; 20 μM): 50% | inhibition of ACC activity (Toxoplasma gondii ACC; 100 μM): 90%

CCc1nc(N)nc(N)c1-c1ccc(Cl)cc1 [Pyrimethamine]
CPM for B (T. gondii [4]): 69217 ± 3253 CPM

CC(Oc1ccc(Oc2cnc3cc(Cl)ccc3n2)cc1)C(=O)O (centres unmarked) [Quizalofop, ()-2-[4-[(6-chloro-2-quinoxalinyl)oxy]phenoxy]propanoic acid]
inhibition of ACC activity (Toxoplasma gondii ACC; 20 μM): 50% | inhibition of ACC activity (Toxoplasma gondii ACC; 100 μM): 90%

O=C(NO)c1ccccc1O [SHAM, Salicylhydroxamic acid]
CPM restricted (tritiated uracil incorporation) ([1]; SHAM 0.16 μg/ml (0.19), 4 day, medium around 54,000 CPM): around 50% | counts (tritiated uracil incorporation) ([1]; SHAM 0.78 μg/ml, 4 day, medium around 54,000, no RH around 1,000 CPM): about 8,000 CPM | approximate 95% C1 count (mean parasite count per field) (C. parvum; SHAM 0.1 μg/ml, 0.2% ETOH, media and ethanol ~1200): ~1200 | approximate 95% C1 count (mean parasite count per field) (C. parvum; SHAM 1 μg/ml, 0.2% ETOH, media and ethanol ~1200): ~1100 | approximate 95% C1 count (mean parasite count per field) (C. parvum; SHAM 10 μg/ml, 0.2% ETOH, media and ethanol ~1200): ~1100 | approximate 95% C1 count (mean parasite count per field) (C. parvum; SHAM 100 μg/ml, 0.2% ETOH, media and ethanol ~1200): ~400 | CPM for B (T. gondii [4]): 42993 ± 1098 CPM | parasitemia and number of brain cysts (T. gondii [5]): affects parasitemia and number of brain cysts

Nc1ccc(S(=O)(=O)Nc2ncccn2)cc1 [Sulfadiazine]
growth of T. gondii reduced [1]: about 60% | CPM for B (T. gondii [4]): 25026 ± 4365 CPM | manifestations of infection in vivo (T. gondii [5]): reduced manifestations of infection

NC[C@@H]1O[C@H](O[C@H]2[C@@H](O)[C@H](O[C@@H]3[C@@H](O)[C@H](N)C[C@H](N)[C@H]3O[C@H]3O[C@H](CO)[C@@H](O)[C@H](O)[C@H]3N)O[C@@H]2CO)[C@H](N)[C@@H](O)[C@@H]1O [paromomycin]
approximate 95% C1 count (mean parasite count per field) (C. parvum; PRM without ethanol, media alone ~1800): ~200 | approximate 95% C1 count (mean parasite count per field) (C. parvum; paromomycin (PRM) and ethanol, media and ethanol ~1200): ~100
